From ChEMBL document CHEMBL1201862, “PubChem BioAssay data set” (2004)
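The compound was tested at five concentrations on cells cultured in 96-well plates, with a 48-hour exposure period. GI50 marks 50% less growth.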 The source made the active and inactive calls. Cut-off read from the data, not from the text of the source: active = GI50 up to about 1.1 µM and inactive = higher.

Key:
Test in all cases: inhibition of tumour cell growth, NCI panel, 48 h
[1] = test system: DLD-1
[2] = test system: A549
[3] = test system: RXF 393
[4] = test system: HCT-116
[5] = test system: CAKI-1
[6] = test system: HCT-15
[7] = test system: SK-MEL-2
[8] = test system: K562
[9] = test system: NCI-H226
[10] = test system: NCI-H23
[11] = test system: SK-MEL-28
[12] = test system: LXFL 529
[13] = test system: KM12
[14] = test system: TK-10
[15] = test system: UACC-257
[16] = test system: SNB-75
[17] = test system: MOLT-4
[18] = test system: ACHN
[19] = test system: NCI-H460
[20] = test system: RPMI-8226
[21] = test system: OVCAR-5
[22] = test system: NCI-H522
[23] = test system: SW-620
[24] = test system: DMS-273
[25] = test system: SNB-78
[26] = test system: COLO 205
[27] = test system: LOX IMVI
[28] = test system: SF-295
[29] = test system: SF-539
[30] = test system: HL-60
[31] = test system: OVCAR-4
[32] = test system: HOP-18
[33] = test system: SR
[34] = test system: SK-MEL-5
[35] = test system: SN12C
[36] = test system: DMS-114
[37] = test system: UO-31
[38] = test system: UACC-62
[39] = test system: OVCAR-8
[40] = test system: SK-OV-3
[41] = test system: HOP-92
[42] = test system: SF-268
[43] = test system: IGROV-1
[44] = test system: CCRF-CEM
[45] = test system: HT-29
[46] = test system: Malme-3M
[47] = test system: M19-MEL
[48] = test system: HOP-62
[49] = test system: M14
[50] = test system: U-251
[51] = test system: 786-0
[52] = test system: KM-20L2
[53] = test system: HCC 2998
[54] = test system: EKVX
[55] = test system: OVCAR-3
[56] = test system: SNB-19
[57] = test system: A498

With C=C(Br)C(C)(Br)CCC(Br)C(C)(C)Br (stereo not drawn) the GI50 [1] was 37 µM (inactive), the GI50 [2] was 80.2 µM (inactive) and the GI50 [3] was 46.6 µM (inactive). The GI50 [4] was 21.2 µM (inactive), the GI50 [5] was > 100 µM (inactive) and the GI50 [6] was 34.8 µM. The GI50 [7] was 24.5 µM (inactive), the GI50 [8] was 21.4 µM (inactive) and the GI50 [9] was 35.3 µM (inactive). The GI50 [10] was 36.4 µM (inactive), the GI50 [11] was 19.1 µM (inactive) and the GI50 [12] was 20.5 µM (inactive). The GI50 [13] was 40.1 µM (inactive), the GI50 [14] was 46.3 µM (inactive) and the GI50 [15] was 36.8 µM (inactive). The GI50 [16] was 28.3 µM (inactive), the GI50 [17] was 24.3 µM (inactive) and the GI50 [18] was 57.7 µM (inactive). For the same molecule, the GI50 [19] was 33.7 µM (inactive), the GI50 [20] was 21.7 µM (inactive) and the GI50 [21] was 35.5 µM (inactive). For the same molecule, the GI50 [22] was 14.7 µM (inactive), the GI50 [23] was 28.4 µM (inactive) and the GI50 [24] was 19.2 µM (inactive). The GI50 [25] was 26.2 µM (inactive), the GI50 [26] was 19.3 µM (inactive) and the GI50 [27] was 16.5 µM (inactive). For the same molecule, the GI50 [28] was 26.5 µM (inactive), the GI50 [29] was 19.3 µM (inactive) and the GI50 [30] was 23.1 µM (inactive). The GI50 [31] was 39.4 µM (inactive), the GI50 [32] was > 100 µM (inactive) and the GI50 [33] was 13.4 µM (inactive). For the same molecule, the GI50 [34] was 33.5 µM (inactive), the GI50 [35] was 21.6 µM (inactive) and the GI50 [36] was 17.2 µM (inactive). For the same molecule, the GI50 [37] was 60.7 µM (inactive), the GI50 [38] was 21 µM (inactive) and the GI50 [39] was 17.5 µM (inactive). For the same molecule, the GI50 [40] was 40.7 µM (inactive), the GI50 [41] was 18.6 µM (inactive) and the GI50 [42] was 30.2 µM (inactive). For the same molecule, the GI50 [43] was 19.7 µM (inactive), the GI50 [44] was 15 µM (inactive) and the GI50 [45] was 38.8 µM (inactive). The GI50 [46] was 28.1 µM (inactive), the GI50 [47] was 17 µM (inactive) and the GI50 [48] was 14.7 µM (inactive). The GI50 [49] was 23.7 µM (inactive), the GI50 [50] was 17.1 µM (inactive) and the GI50 [51] was 22.5 µM (inactive).

For Cc1cc(C)n(-c2nsc3ccccc23)n1, the GI50 [52] was > 100 µM (inactive), the GI50 [2] was > 100 µM (inactive) and the GI50 [3] was > 100 µM (inactive). The GI50 [4] was > 100 µM (inactive), the GI50 [6] was > 100 µM and the GI50 [7] was > 100 µM (inactive). For the same molecule, the GI50 [8] was 89.1 µM (inactive), the GI50 [10] was > 100 µM (inactive) and the GI50 [11] was > 100 µM (inactive). For the same molecule, the GI50 [12] was > 100 µM (inactive), the GI50 [13] was > 100 µM (inactive) and the GI50 [14] was > 100 µM (inactive). The GI50 [15] was > 100 µM (inactive), the GI50 [16] was 26.9 µM (inactive) and the GI50 [53] was > 100 µM (inactive). The GI50 [17] was > 100 µM (inactive), the GI50 [18] was > 100 µM (inactive) and the GI50 [54] was 91.4 µM (inactive). For the same molecule, the GI50 [19] was > 100 µM (inactive), the GI50 [20] was > 100 µM (inactive) and the GI50 [21] was > 100 µM (inactive). The GI50 [23] was > 100 µM (inactive), the GI50 [24] was > 100 µM (inactive) and the GI50 [25] was > 100 µM (inactive). The GI50 [26] was > 100 µM (inactive), the GI50 [27] was > 100 µM (inactive) and the GI50 [55] was > 100 µM (inactive). The GI50 [29] was > 100 µM (inactive), the GI50 [30] was > 100 µM (inactive) and the GI50 [31] was > 100 µM (inactive). For the same molecule, the GI50 [56] was > 100 µM (inactive), the GI50 [32] was 15.8 µM (inactive) and the GI50 [33] was > 100 µM (inactive). For the same molecule, the GI50 [34] was > 100 µM (inactive), the GI50 [35] was > 100 µM (inactive) and the GI50 [36] was > 100 µM (inactive). For the same molecule, the GI50 [37] was > 100 µM (inactive), the GI50 [38] was > 100 µM (inactive) and the GI50 [39] was > 100 µM (inactive). The GI50 [41] was 80.5 µM (inactive), the GI50 [42] was > 100 µM (inactive) and the GI50 [43] was > 100 µM (inactive). The GI50 [44] was > 100 µM (inactive), the GI50 [45] was > 100 µM (inactive) and the GI50 [47] was > 100 µM (inactive). For the same molecule, the GI50 [48] was > 100 µM (inactive), the GI50 [49] was > 100 µM (inactive) and the GI50 [50] was > 100 µM (inactive).

In the case of COC(=O)/C(=N\NC(C)(C)C)C(C(=O)C(=O)Nc1cc(C)ccc1C)c1nc2ccccc2nc1O (stereo not drawn), the GI50 [57] is reported as > 100 µM (inactive), the GI50 [1] is reported as > 100 µM (inactive) and the GI50 [52] is reported as > 100 µM (inactive). The GI50 [5] was > 100 µM (inactive), the GI50 [8] was > 100 µM (inactive) and the GI50 [9] was > 100 µM (inactive). For the same molecule, the GI50 [10] was > 100 µM (inactive), the GI50 [13] was > 100 µM (inactive) and the GI50 [14] was > 100 µM (inactive). The GI50 [15] was > 100 µM (inactive), the GI50 [16] was > 100 µM (inactive) and the GI50 [17] was > 100 µM (inactive). The GI50 [18] was > 100 µM (inactive), the GI50 [54] was > 100 µM (inactive) and the GI50 [20] was > 100 µM (inactive). For the same molecule, the GI50 [21] was > 100 µM (inactive), the GI50 [23] was > 100 µM (inactive) and the GI50 [26] was > 100 µM (inactive). For the same molecule, the GI50 [27] was > 100 µM (inactive), the GI50 [28] was > 100 µM (inactive) and the GI50 [29] was > 100 µM (inactive). The GI50 [30] was > 100 µM (inactive), the GI50 [31] was > 100 µM (inactive) and the GI50 [56] was > 100 µM (inactive). For the same molecule, the GI50 [33] was > 100 µM (inactive), the GI50 [34] was > 100 µM (inactive) and the GI50 [35] was > 100 µM (inactive). The GI50 [38] was > 100 µM (inactive), the GI50 [39] was > 100 µM (inactive) and the GI50 [41] was > 100 µM (inactive). For the same molecule, the GI50 [43] was > 100 µM (inactive), the GI50 [44] was > 100 µM (inactive) and the GI50 [45] was > 100 µM (inactive). The GI50 [48] was > 100 µM (inactive).
